Here are results for two compounds from ChEMBL document CHEMBL1201862, “PubChem BioAssay data set” (2004).

The term AC50 denotes the concentration at which the activity in the assay is half-maximal. By IC50 is commonly meant the concentration that gives 50% inhibition. Broadly, the EC50 is the concentration needed to bring the measured effect to its halfway point.

Assay [1] can be described thus: general cell-killing toxicity readout – plate reader, dry powder samples, cytotoxicity control for PAX8 inhibitor project, dose response (AID 743021). Format: functional, cell-based.
Assay [2] has as its target T1, Voltage-gated N-type calcium channel alpha-1B subunit/Amyloid beta A4 precursor protein-binding family A member 1 (Homo sapiens, UniProt Q00975+Q02410). Format: protein assay.
Assay [3] addresses T2, Replicative DNA helicase DnaB (Mycobacterium tuberculosis, UniProt P9WMR3).
T2 sequence (P9WMR3 whole entry): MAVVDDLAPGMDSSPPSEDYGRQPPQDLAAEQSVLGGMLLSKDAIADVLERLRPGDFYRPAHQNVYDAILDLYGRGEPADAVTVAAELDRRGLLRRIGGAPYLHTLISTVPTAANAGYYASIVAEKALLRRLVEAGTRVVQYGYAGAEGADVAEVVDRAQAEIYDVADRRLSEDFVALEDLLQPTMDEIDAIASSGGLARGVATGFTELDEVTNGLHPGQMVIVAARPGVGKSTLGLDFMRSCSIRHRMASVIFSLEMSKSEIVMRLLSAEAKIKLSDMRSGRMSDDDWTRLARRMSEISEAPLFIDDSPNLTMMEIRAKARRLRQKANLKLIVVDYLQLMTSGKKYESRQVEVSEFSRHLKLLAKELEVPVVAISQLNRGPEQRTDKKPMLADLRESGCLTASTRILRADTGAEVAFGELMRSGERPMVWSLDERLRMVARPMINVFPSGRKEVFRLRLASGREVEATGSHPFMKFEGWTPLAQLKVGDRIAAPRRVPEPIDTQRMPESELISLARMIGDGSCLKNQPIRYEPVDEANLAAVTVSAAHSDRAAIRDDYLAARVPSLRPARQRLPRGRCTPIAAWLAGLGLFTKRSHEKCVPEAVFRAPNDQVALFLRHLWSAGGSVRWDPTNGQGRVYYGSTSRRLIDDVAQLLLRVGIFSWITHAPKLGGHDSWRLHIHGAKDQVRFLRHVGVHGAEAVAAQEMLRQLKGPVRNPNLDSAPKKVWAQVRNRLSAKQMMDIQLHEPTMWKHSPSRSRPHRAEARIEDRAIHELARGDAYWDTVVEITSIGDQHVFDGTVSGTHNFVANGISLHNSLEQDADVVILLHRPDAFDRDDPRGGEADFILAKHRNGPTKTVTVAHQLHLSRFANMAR
Kind of assay: DnaB intein splicing inhibitors, dose response, biochemical, cell-free fluorescence (AID 449749). Format: functional.

Assay [4] addresses T3, Protein RecA (Mycobacterium tuberculosis, UniProt P9WHJ3).
T3 sequence (P9WHJ3 whole entry): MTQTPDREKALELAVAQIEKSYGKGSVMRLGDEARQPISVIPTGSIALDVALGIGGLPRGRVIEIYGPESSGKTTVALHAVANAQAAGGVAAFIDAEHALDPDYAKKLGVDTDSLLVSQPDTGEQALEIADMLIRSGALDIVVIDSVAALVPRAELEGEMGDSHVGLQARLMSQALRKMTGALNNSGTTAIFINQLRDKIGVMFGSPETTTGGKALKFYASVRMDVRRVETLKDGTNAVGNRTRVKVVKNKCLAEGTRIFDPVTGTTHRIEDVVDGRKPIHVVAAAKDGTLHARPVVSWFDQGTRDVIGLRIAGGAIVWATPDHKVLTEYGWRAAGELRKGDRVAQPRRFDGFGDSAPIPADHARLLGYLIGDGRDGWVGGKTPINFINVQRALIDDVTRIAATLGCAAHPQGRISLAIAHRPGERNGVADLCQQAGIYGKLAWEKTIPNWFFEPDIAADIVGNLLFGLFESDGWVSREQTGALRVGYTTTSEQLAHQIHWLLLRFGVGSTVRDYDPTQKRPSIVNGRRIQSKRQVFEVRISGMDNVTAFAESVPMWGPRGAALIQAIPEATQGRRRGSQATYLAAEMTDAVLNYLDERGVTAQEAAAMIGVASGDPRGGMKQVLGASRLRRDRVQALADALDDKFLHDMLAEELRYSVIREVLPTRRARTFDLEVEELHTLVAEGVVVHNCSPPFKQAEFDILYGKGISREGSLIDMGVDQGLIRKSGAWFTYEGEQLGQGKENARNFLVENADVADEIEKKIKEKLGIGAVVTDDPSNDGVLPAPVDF
As to the kind of experiment: Fluorescence Cell-Free Homogeneous Dose Retest to Identify Inhibitors of RecA-Intein Splicing Activity. [Related pubchem assays (depositor defined):AID2097, AID2223, AID489010, AID492950]. Format: functional.

The nature of assay [5]: CMV-driven luciferase expression suppression in HEK293 – cell-based, luminescence, dry powder, counter-screen for Pax8 inhibitor project, dose response (AID 743020). It counts as functional.
The target in assay [6] is Paired box protein Pax-8 (Homo sapiens, UniProt Q06710). As to the kind of experiment: PAX8 transcriptional activity inhibition in RMG-I – RMG-I cells, luciferase, cherry-pick, dose response (AID 687027).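 Note: luciferase reporter driven by Pax8 target thyroperoxidase promoter measured by SteadyGlo luminescence.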 Format: functional, cell-based.
The target in assay [7] is T1, Voltage-gated N-type calcium channel alpha-1B subunit/Amyloid beta A4 precursor protein-binding family A member 1. Format: protein assay. The source holds these as a separate data set.
Assay [8] deals with Ion channel NompC (Danio rerio, UniProt Q7T1G6). As to the kind of experiment: Dose response cell-based high-throughput screening assay for agonists of the transient receptor potential channel N1 (TRPN1). [Related pubchem assays (depositor defined):AID1424, AID1448]. Format: functional.
The target in assay [9] is Peroxisome proliferator-activated receptor gamma/Nuclear receptor coactivator 2 (Homo sapiens, UniProt P37231). Format: functional.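 Note: agonist potency for raising coactivator recruitment to the receptor.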
Sequence of Peroxisome proliferator-activated receptor gamma/Nuclear receptor coactivator 2 (P37231 whole entry): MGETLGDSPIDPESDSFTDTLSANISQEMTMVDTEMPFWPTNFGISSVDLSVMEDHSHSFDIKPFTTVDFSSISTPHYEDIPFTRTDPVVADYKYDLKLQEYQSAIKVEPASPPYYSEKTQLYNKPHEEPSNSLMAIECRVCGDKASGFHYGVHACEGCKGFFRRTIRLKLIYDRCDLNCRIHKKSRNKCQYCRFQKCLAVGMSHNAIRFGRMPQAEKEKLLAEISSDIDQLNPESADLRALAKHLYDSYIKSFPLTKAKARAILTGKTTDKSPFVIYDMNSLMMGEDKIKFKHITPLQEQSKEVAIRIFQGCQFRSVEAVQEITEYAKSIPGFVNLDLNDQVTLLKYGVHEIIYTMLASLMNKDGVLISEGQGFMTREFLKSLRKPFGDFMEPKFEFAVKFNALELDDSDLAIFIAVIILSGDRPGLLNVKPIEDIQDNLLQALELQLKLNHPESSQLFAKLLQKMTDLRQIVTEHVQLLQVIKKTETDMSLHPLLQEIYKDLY
Sequence of Peroxisome proliferator-activated receptor gamma/Nuclear receptor coactivator 2 (Q15596 whole entry, further chain): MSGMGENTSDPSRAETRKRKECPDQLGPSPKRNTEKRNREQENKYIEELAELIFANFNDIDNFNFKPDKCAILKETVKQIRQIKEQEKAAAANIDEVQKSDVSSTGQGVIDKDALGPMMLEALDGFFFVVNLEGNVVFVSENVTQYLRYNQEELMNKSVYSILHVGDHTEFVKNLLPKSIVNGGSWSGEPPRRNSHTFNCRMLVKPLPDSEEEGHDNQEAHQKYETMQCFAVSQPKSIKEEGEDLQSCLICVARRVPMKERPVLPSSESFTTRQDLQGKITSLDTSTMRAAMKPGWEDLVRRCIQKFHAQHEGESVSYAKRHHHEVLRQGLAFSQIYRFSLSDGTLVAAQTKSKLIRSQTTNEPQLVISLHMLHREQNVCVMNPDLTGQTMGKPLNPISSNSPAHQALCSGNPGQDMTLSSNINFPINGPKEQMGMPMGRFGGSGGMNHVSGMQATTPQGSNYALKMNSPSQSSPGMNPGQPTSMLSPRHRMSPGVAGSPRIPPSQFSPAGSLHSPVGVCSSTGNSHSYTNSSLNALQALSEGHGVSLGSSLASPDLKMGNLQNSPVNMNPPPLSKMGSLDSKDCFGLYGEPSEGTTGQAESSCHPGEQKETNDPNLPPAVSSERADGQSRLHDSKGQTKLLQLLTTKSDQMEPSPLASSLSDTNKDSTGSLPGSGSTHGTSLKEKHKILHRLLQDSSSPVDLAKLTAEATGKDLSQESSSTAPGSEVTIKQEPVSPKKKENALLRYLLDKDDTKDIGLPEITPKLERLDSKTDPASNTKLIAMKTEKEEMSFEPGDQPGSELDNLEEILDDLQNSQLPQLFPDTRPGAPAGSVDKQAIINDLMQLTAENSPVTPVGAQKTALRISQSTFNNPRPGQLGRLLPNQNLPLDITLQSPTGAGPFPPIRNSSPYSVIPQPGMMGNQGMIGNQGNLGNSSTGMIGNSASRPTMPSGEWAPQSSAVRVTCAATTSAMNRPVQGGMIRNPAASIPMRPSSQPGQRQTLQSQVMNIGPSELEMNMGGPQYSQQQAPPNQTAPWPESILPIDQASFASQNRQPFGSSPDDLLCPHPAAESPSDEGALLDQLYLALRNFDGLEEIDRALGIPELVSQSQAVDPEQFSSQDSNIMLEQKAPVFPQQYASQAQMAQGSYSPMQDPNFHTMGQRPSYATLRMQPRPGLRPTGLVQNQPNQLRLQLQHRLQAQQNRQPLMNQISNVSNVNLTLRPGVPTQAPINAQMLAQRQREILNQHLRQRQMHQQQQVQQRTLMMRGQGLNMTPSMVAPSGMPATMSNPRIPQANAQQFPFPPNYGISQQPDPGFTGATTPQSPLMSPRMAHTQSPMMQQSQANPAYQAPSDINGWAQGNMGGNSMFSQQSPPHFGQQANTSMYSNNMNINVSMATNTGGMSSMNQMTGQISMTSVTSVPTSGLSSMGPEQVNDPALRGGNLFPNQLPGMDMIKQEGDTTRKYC
Assay [10] can be described thus: mitochondrial function rescue without frataxin homolog – Friedreich's ataxia, plus single-dose screen, dose response (AID 1465).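 Note: yeast depleted of Yfh1p frataxin homolog grown on glycerol needing respiration; WST-1 tetrazolium dye reduction as measure of cellular dehydrogenase metabolic activity.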 Format: functional.
In assay [11] the target is Peroxisome proliferator-activated receptor gamma/Nuclear receptor coactivator 1 (Homo sapiens, UniProt P37231). It counts as functional.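 Note: agonist potency as compounds enhance coactivator SRC-1 recruitment to PPARgamma.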
Assay [12] deals with T4, Mucolipin-3 (Homo sapiens, UniProt Q8TDD5).
T4 sequence (Q8TDD5 whole entry): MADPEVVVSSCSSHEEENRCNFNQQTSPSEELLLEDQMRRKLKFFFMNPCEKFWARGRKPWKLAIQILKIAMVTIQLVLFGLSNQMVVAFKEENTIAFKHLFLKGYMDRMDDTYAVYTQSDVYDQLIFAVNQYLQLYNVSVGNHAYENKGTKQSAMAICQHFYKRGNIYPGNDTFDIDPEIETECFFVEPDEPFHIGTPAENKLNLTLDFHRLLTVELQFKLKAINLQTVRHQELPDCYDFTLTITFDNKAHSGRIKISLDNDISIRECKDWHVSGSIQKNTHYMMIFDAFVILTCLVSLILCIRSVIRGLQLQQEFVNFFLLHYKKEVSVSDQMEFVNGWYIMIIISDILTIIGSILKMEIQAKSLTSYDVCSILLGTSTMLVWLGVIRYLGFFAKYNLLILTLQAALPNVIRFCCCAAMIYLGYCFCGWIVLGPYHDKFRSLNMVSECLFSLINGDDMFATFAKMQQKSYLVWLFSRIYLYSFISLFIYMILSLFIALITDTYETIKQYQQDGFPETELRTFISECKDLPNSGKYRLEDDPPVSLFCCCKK
As to the kind of experiment: Fluorescence counterscreen assay for […] agonists: dose response cell-based high-throughput screening assay to identify agonists of the transient receptor potential channel ML3 (TRPML3). [Related pubchem assays: 1424, 1448 ]. Format: functional. A general note: A counterscreen serves to expose hits that act by an unwanted route or on another target.

For assay [13], the target named is T5, Calpain-2 catalytic subunit (Sus scrofa, UniProt P43367).
T5 sequence (P43367 whole entry): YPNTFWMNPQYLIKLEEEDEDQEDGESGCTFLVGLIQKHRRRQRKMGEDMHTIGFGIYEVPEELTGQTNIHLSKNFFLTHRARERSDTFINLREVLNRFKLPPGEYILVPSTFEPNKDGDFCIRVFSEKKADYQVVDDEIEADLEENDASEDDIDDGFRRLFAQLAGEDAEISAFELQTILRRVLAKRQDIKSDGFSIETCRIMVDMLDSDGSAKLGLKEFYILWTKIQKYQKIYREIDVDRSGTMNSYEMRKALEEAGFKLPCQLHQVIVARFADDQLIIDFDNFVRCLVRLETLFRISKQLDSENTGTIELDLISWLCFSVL
As to the kind of experiment: m-calpain protease blockers, concentration series – biochemical, fluorogenic peptide substrate, dose response (AID 1420). It counts as functional.

Assay [14] deals with Peroxisome proliferator-activated receptor gamma/Nuclear receptor coactivator 3 (Homo sapiens, UniProt P37231). It counts as functional.
For assay [15], the target named is T6, Leucine aminopeptidase (Plasmodium falciparum 3D7, UniProt Q8IL11).
T6 sequence (Q8IL11 whole entry): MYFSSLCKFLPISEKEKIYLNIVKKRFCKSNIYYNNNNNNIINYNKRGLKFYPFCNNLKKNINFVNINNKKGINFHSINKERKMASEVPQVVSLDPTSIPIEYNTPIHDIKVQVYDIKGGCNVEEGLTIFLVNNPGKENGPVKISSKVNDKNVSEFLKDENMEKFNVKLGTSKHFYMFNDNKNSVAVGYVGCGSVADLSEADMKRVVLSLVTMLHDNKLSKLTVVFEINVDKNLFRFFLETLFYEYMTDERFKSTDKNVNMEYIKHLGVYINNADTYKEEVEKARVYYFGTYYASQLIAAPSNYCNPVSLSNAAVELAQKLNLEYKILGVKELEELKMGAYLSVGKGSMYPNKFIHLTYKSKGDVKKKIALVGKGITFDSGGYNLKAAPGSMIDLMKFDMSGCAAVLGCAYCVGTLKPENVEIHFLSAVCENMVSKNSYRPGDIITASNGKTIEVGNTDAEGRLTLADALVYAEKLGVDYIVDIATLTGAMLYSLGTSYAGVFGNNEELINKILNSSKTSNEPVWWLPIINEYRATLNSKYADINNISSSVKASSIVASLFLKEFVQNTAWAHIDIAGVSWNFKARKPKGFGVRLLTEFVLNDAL
Kind of assay: P. falciparum M17LAP inhibitors, primary screen, biochemical, fluorogenic H-Leu-NHMec substrate, 1536-well (AID 1619). It counts as functional.

Activity calls are given as the source filed them.

T1 sequence (Q00975 whole entry): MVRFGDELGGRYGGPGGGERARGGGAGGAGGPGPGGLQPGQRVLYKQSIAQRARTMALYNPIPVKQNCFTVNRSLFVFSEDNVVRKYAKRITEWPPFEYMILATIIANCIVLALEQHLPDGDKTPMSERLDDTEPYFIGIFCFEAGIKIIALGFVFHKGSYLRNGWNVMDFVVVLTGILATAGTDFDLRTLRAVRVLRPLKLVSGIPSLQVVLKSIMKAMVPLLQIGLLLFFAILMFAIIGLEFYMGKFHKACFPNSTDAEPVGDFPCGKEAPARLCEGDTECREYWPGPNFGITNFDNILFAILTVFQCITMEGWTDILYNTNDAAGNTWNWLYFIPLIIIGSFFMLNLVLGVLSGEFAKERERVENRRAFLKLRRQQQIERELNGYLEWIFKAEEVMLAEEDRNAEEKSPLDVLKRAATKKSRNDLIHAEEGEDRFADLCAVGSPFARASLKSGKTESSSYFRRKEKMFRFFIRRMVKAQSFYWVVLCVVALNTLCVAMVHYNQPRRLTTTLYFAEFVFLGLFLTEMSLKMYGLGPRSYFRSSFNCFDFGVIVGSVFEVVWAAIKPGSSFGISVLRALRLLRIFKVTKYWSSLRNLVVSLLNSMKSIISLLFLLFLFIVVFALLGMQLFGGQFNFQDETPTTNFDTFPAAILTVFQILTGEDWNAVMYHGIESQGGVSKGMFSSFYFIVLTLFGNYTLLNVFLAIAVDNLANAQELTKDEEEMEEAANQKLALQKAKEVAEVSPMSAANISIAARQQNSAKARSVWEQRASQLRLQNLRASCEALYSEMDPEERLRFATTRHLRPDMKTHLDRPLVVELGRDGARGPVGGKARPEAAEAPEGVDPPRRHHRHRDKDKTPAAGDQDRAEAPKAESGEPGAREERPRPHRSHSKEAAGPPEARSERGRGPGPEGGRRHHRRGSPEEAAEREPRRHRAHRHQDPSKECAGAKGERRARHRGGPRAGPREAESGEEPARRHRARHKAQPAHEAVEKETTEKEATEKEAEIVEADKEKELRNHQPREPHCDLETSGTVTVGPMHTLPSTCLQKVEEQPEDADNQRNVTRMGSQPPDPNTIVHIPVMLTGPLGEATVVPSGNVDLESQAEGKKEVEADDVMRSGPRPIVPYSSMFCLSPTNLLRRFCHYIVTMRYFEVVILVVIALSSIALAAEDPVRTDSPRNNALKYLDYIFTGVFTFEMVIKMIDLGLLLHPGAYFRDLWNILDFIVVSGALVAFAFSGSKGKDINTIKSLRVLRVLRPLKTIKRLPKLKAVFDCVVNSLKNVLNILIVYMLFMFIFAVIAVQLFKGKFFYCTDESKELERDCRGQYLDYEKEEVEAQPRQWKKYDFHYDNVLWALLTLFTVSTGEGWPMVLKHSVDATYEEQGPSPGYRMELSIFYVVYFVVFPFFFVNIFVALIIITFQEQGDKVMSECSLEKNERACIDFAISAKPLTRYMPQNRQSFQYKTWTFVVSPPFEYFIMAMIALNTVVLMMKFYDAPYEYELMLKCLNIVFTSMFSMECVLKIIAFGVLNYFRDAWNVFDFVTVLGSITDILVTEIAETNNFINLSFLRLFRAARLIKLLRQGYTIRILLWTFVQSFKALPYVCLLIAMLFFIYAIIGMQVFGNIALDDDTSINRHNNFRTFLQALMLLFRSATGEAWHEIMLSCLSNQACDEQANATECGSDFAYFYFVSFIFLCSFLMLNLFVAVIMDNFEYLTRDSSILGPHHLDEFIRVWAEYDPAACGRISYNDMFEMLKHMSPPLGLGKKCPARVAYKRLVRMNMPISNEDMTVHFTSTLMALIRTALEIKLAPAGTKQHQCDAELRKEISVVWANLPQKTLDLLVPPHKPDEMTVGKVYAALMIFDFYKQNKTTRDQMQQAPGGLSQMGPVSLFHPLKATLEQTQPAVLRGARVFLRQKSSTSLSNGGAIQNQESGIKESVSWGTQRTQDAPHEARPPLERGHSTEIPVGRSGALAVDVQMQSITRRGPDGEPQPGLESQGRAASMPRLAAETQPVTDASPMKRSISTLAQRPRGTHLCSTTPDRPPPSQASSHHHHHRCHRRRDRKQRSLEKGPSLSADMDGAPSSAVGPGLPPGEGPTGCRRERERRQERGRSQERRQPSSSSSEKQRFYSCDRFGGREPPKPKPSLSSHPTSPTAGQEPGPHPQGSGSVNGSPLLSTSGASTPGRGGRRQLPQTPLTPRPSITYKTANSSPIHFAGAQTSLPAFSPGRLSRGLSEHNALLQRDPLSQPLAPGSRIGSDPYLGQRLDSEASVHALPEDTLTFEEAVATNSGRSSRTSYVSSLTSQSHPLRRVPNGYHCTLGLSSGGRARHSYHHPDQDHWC
T1 sequence (Q02410 whole entry): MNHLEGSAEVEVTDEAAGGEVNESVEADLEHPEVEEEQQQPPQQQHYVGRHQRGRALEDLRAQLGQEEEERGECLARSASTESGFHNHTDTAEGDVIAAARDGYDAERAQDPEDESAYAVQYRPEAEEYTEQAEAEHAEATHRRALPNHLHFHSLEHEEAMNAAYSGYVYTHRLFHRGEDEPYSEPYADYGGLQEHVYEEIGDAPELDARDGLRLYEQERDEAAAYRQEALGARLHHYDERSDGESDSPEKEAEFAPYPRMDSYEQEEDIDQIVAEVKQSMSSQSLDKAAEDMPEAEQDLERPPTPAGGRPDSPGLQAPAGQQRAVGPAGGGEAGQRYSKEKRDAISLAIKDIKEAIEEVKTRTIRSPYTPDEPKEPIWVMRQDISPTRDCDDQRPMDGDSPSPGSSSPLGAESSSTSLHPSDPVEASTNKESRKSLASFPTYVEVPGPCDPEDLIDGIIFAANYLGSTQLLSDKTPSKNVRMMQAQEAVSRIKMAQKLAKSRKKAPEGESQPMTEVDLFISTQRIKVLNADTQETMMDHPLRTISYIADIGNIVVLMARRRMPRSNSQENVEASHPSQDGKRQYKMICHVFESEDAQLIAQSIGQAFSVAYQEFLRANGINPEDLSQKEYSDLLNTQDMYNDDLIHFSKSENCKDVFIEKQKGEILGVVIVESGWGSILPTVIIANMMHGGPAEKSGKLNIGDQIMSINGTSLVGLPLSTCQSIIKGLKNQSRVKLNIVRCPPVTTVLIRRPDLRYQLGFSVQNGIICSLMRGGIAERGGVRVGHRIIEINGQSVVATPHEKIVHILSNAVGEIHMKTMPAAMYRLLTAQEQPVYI

In the case of `N#Cc1nccnc1S(=O)(=O)c1cccs1`, the concentration at half-maximal activity (AC50) in assay [1] was 13.5 µM (active); in assay [3] it was 8.49 µM (active); in [5] it was 23 µM (active); in assay [6] it was 4.59 µM (active). Besides, the IC50 in assay [2] is 22.7 µM (active); in assay [7], 1.13 µM (active). For the same compound, in assay [4], the half-maximal effective concentration (EC50) was 6.36 µM (active).
For `CN1CCS/C1=C\C=C1/SC(=S)N(CC(=O)O)C1=O`, the EC50 in [8] was 5.26 µM (active); in [9] it was 62.2 µM (not active); in assay [10], > 100 µM (active); in [11], 89.8 µM (not active); in assay [12], 7.93 µM (active); in assay [14], > 79.4 µM (not active). Moreover, the 50% inhibitory concentration (IC50) was 7.69 µM (not active) in [13] and 52.3 µM (active) in assay [15].
